Laboratory results: patent US20250361273A1, “METHODS AND COMPOSITIONS” (priority 2024, published 2025)
Where a SMILES comes first, the peptide text is derived from it. Bridges are numbered along the chain shown (N, C = ends). [ ]: non-standard residue; d: D form. Trp(6-F) = N[C@@H](Cc1c[nH]c2cc(F)ccc12)C(=O)O; dPhe(4-F) = N[C@H](Cc1ccc(F)cc1)C(=O)O; dAgb = N=C(N)NCC[C@@H](N)C(=O)O; Ac4c(3-oxa) = NC1(C(=O)O)COC1; Pen = CC(C)(S)[C@H](N)C(=O)O

How the values were obtained:
[1] = target: MC1R (Homo sapiens, UniProt Q01726); assay: cAMP assay (human receptors), DiscoverX HitHunter, MC1R
Procedure: The cAMP Assay (Human Receptors)
The in vitro functional activity of peptides was determined via DiscoverX Hit Hunter® cAMP assays, adhering to manufacturer-specified protocols. Assays involved the use of HEK293 cells, each of which were engineered to express MC1R or MC4R receptors.
In accordance with standard procedures, cAMP Hunter cell lines, extracted from freezer stocks, were cultured in 20 μL volumes in white-walled, 384-well microplates. These cells were incubated at 37° C. for an appropriate duration before commencing testing procedures. The identification of cAMP modulation was determined using the DiscoverX HitHunter assay.
For gauging the response from agonists, cells were incubated with a specific peptide, after which the media was aspirated and replaced with a solution of 10 μL of HBSS/10 mM Hepes, known as Assay Buffer. A subsequent dilution of sample stocks yielded a 4× sample in the assay buffer, which was then added to the cells in equal quantities, followed by a 30-minute incubation at 37° C. The ensuing concentration of DMSO, the vehicle, was maintained at 1%. […]
Compound activity was evaluated using a Chemical and Biological Information System software (CBIS) data analysis suite. The results described were calculated on an average of the two points per concentration generated by the assay described above. […]

[2] = tested on: MC4R vs MC1R; assay: Selectivity calculation MC4R vs MC1R (division of cAMP EC50 values); assay type: cell-based, human
Procedure: Peptides, including comparator molecules were tested by assays listed below. Selectivity between receptors was assessed in part using cAMP assays, which test the activity of peptides through the Gs pathway.
Selectivity between any two receptors was calculated by a division of the EC50 values between the two receptors, for each individual peptide.

[3] = target: T1, MC4R (Homo sapiens, UniProt P32245); assay: Bias calculation MC4R B-arrestin v MC4R cAMP; assay type: cell-based
T1 construct: host or cells: HEK293 (cAMP Hunter and PathHunter MC4R cell lines)
T1 sequence (P32245 whole entry): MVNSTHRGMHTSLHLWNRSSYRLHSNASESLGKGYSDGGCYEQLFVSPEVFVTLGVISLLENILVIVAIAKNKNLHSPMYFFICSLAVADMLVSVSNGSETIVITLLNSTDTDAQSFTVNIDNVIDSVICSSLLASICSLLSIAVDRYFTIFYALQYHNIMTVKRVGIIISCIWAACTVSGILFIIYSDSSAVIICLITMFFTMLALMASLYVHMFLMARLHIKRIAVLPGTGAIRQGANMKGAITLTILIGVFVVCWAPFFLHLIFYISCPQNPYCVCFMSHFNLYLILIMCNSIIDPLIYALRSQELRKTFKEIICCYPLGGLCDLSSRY
Description: When comparing the selectivity of MC4R v MC1R, larger values indicate selectivity towards MC4R. When comparing the bias of MC4R B-arrestin v MC4R cAMP, larger values indicate bias towards B-arrestin.

Sequence of MC1R (Q01726 whole entry): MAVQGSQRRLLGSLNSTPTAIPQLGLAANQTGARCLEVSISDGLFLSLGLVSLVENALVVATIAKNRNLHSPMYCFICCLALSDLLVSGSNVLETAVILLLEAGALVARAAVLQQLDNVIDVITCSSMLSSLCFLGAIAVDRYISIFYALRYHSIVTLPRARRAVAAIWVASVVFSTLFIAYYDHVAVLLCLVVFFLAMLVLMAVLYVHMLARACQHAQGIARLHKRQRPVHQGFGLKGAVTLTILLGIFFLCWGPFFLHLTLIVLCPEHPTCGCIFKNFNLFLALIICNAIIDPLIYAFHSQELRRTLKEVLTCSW

## CCCC[C@H](NC(C)=O)C(=O)N[C@H]1CC(=O)NCCCC[C@@H](C(=O)O)NC(=O)[C@H](Cc2c[nH]c3ccccc23)NC(=O)[C@H](CCCN=C(N)N)NC(=O)[C@@H](Cc2ccccc2)NC(=O)[C@H](Cc2cnc[nH]2)NC1=O [Bremelanotide]
[1]
  EC50: 0.17 nM

## CC(=O)N[C@H](CCNC(=N)N)C(=O)N[C@H]1CSSC(C)(C)[C@@H](C(N)=O)NC(=O)[C@H](Cc2c[nH]c3cc(F)ccc23)NC(=O)[C@H](CCCNC(=N)N)NC(=O)[C@@H](Cc2ccc(F)cc2)NC(=O)[C@H](CCC(N)=O)NC(=O)C2(COC2)NC1=O [Molecule 1158, (7R,12R,15S,18S,21R,24S)-7-((R)-2-acetamido-4-guanidinobutanamido)-24-(3-amino-3-oxopropyl)-15-((6-fluoro-1H-indol-3-yl)methyl)-21-(4-fluorobenzyl)-18-(3-guanidinopropyl)-11,11-dimethyl-6,14,17,20,23,26-hexaoxo-2-oxa-9,10-dithia-5,13,16,19,22,25-hexaazaspiro[3.22]hexacosane-12-carboxamide] (Ac-[dAgb]C[Ac4c(3-oxa)]Q[dPhe(4-F)]R[Trp(6-F)][Pen]-NH2; disulfide 2-8)
[2]; Compounds with Gln at X4, larger values indicate selectivity towards MC4R
  Selectivity: MC4R v MC1R: *** (*** denotes MC4R vs MC1R selectivity of about >7.40)
[2]; Table 6 (A), larger values indicate selectivity towards MC4R
  Selectivity: MC4R v MC1R: *** (*** denotes MC4R vs MC1R selectivity of about >7.40)
[2]; Table 6 (B), larger values indicate selectivity towards MC4R
  Selectivity: MC4R v MC1R: *** (*** denotes MC4R vs MC1R selectivity of about >7.40)
[2]; Table 7, Aib(O-cyclic) at X3, larger values indicate selectivity towards MC4R
  Selectivity: MC4R v MC1R: *** (*** denotes MC4R vs MC1R selectivity of about >7.40)
[2]; Table 14, Aib(O-cyclic) at X3, larger values indicate selectivity towards MC4R
  Selectivity: MC4R v MC1R: *** (*** denotes MC4R vs MC1R selectivity of about >7.40)
[2]; Table 20, Gln at X4
  Selectivity: MC4R v MC1R: *** (*** denotes MC4R vs MC1R selectivity of about >7.40)
[2]; calculated from cAMP functional screening, larger values indicate selectivity towards MC4R
  Selectivity: MC4R v MC1R: *** (*** denotes MC4R vs MC1R selectivity of about >7.40)
[3]; Compounds with Gln at X4, larger values indicate bias towards B-arrestin
  Bias: MC4R B-arrestin v MC4R cAMP: + (+ denotes MC4R B-arrestin v MC4R cAMP bias having a range of >0.00 to ≤2.00)
[3]; Table 6 (B), larger values indicate bias towards B-arrestin
  Bias: MC4R B-arrestin v MC4R cAMP: + (+ denotes MC4R B-arrestin v MC4R cAMP bias having a range of >0.00 to ≤2.00)
[3]; Table 7, Aib(O-cyclic) at X3, larger values indicate bias towards B-arrestin
  Bias: MC4R B-arrestin v MC4R cAMP: + (+ denotes MC4R B-arrestin v MC4R cAMP bias having a range of >0.00 to ≤2.00)
[3]; Table 20, Gln at X4
  Bias: MC4R B-arrestin v MC4R cAMP: + (+ denotes MC4R B-arrestin v MC4R cAMP bias having a range of >0.00 to ≤2.00)
